Key:
[1] = tested on: cGAS-STING, MyD88 and canonical NF-κB pathways in M2 BMDMs; test: Western blotting of cGAS-STING, MyD88 and canonical NF-κB pathways; format: cell-based, mouse; settings: excessive ER stress induction
Description: A western blot was performed as described in Example 1, to assess whether the cationic polypeptides activate innate immune sensors in APCs.

[2] = tested on: ER stress markers BiP, EIF2α, CHOP, XBP1 in bone marrow-derived macrophages; test: ER stress markers (western blotting, XBP1 RT-qPCR); format: cell-based, mouse
Description: M2 BMDMs (1.5×10^7 cells/100 mm^2 petri dish) or cancer cells (2×10^6 cells per 6-well plates) were treated with the experimental solutions. To evaluate inhibitory conditions, cells were pre-treated with CsA (10 μM, TCI America) for 3 h, or co-treated with 4-PBA (5 mM in phosphate-buffered saline [PBS], Tocris Bioscience, USA) and chloroquine (10 μg/mL, Alfa Aesar, USA). Each protein was extracted by using RIPA buffer containing 1% protease inhibitor and 1% phosphatase inhibitor cocktail. Protein concentrations were adjusted to 3 mg/mL by using a BCA kit, with FBS used as a standard. Electrophoresis was carried out by loading proteins (40 μg) into each lane of a sodium dodecyl sulfate-polyacrylamide gel (SDS-PAGE) gel, after which the proteins were transferred to a polyvinylidene fluoride membrane. After blocking, the PVDF membrane was treated with the corresponding primary antibody, and then washed with TBS-T three times before the treatment with the secondary antibody. The blot signals were visualized with a Chemidoc system (ChemiDoc MP imaging system, BioRad, USA).

tunicamycin
activation of MyD88 and STING in macrophages [1]: inhibited activation of MyD88 and STING in macrophages
ER stress / ER stress markers [2]: detrimental levels
